Where a name gives a salt, the structure may show the parent alone.

One test concerns relapsed AML cells. Put plainly: Drug sensitivity assay, 1,536-well, 3-day culture with individual approved drugs at 10 μM, viability by alamarBlue. The class given is cell-based, human.
Conditions: not given
The protocol:
Drug sensitivity assays were performed using a 1,536-well platform where all cells and reagents were deposited in wells using an acoustic liquid handling unit that is highly accurate for dispensing of nanoliter volumes of liquid. […] After dispensing the cells into the wells, an independent drug at a known concentration is added to each well and incubated with the cells. After three days, the percentage of live cells in each well is determined to assess the killing efficiency of each compound. […] Cell viability assays are known to those of skill in the art. See, for example, Pemovska et al., Individualized systems medicine strategy to tailor treatments for patients with chemorefractory acute myeloid leukemia. Cancer Discovery 3:1416-1429, 2013; Pabst et al., Identification of small molecules that support human leukemia stem cell activity ex vivo. Nature Methods 11:436-442, 2014; Baccelli et al., A novel approach for the identification of efficient combination therapies in primary human acute myeloid leukemia specimens. Blood Cancer Journal 7:e529, 2017. In studies described herein, the 1,536-well format was utilized, which allowed for use of four times fewer cells as well as less drug and media components due to the small assay volume of 5 microliters. […] Other compounds like CellTiter-Glo (Promega, Madison, Wis.) are equally appropriate reagents for determining cell viability.
Conditions for the drug screening assays were as described in Pabst et al., Identification of small molecules that support human leukemia stem cell activity ex vivo, Nature Methods 11:436-442, 2014). Using this protocol, cells were cultured in Iscove's Modified Dulbecco's Medium (IMDM), 15% BIT (bovine serum albumin, insulin, transferrin; Stem Cell Technologies 09500 (Vancouver, Calif.)), 100 ng/ml SCF (Shenandoah 100-04 (Warwick, Pa.)), 50 ng/ml FLT3L (Shenandoah 100-21), 20 ng/ml IL-3 (Shenandoah 100-80), 20 ng/ml G-CSF (Shenandoah 100-72), 10^-4 M β-mercaptoethanol, gentamicin (50 μg/ml) and ciprofloxacin (10 μg/ml).
Cells were removed from liquid nitrogen and placed in a 37° C. bath, just until thawed. For 1,536-well screens utilizing 6,000 wells about 100 million cells were thawed. The volume was doubled with pre-warmed culture media and placed on ice for about one to two minutes. The cells were brought to a final volume of about 8 to 10 mL before spinning down at 1,100 rpm for 5 min at 10° C. The pelleted cells were resuspended in 10 mL of culture media and plated in a tissue-culture treated T75 flask at a density of 1 to 2 million cells/ml. The cells were cultured overnight prior to fluorescence-activated cell sorting of viable cells on the following day.
After cells were cultured overnight, a cell scraper was used to remove any cells that adhered to the plastic. The cells were gently pipetted up and down to break up aggregates. Then, the entire volume was transferred to a 50 mL conical tube through a 70 micron cell strainer to remove cell clumps. The T75 flask was rinsed and scraped with about 10 mL HBSS and transferred to the same 50 mL conical tube through the strainer. The harvested cells were spun down at 1,100 rpm for 5 min at 10° C. The cells were then resuspendd in about 300-500 microliters FACS buffer (HBSS+2% FBS+1× propidium iodide) and transferred to a FACS tube. The tube was placed on ice and viable cells that are forward- and side-scatter gated on viable myeloid blasts were sorted by FACS (the scatter gate should exclude small lymphocytes, large myeloid cells, and debris). After sorting the required number of viable cells, the cells were spun down at 1,100 rpm for 5 min at 10° C. and subsequently resuspended at 4,000-4,500 cells per 5 microliter volume of complete culture media with growth factors and penicillin/streptomycin.
As for `CCCCCCCCCCCCCCCC[n+]1ccccc1`, the “#Cases >70% cell death” value was 18.

The same test, now with this note: number of relapsed AML cases out of 18 tested with >70% cell death; 10 μM, 3-day culture.
For `O=C(O)CCCCN(CCc1ccccc1OCc1ccc(CCc2ccccc2)cc1)Cc1ccc(C(=O)O)cc1`, the “#Cases >70% cell death” value was determined as 1.

As to `COc1cc2c(cc1OC)CN(CCc1ccc(NC(=O)c3cccc4c(=O)c5cccc(OC)c5[nH]c34)cc1)CC2`, the “#Cases >70% cell death” value stood at 2. Turning to `O=C(NCC1CCCCN1)c1cc(OCC(F)(F)F)ccc1OCC(F)(F)F` (centres unmarked), the “#Cases >70% cell death” value is 1. For the molecule `N[C@@H](Cc1ccc(N(CCCl)CCCl)cc1)C(=O)O`, the “#Cases >70% cell death” value is listed as 4.

Turning to `c1ccc2c(CCNc3ccc(Nc4ccncc4)cc3)c[nH]c2c1`, the “#Cases >70% cell death” value amounted to 12.

Take `CC[C@]1(O)C[C@@H]2CN(CCc3c([nH]c4ccccc34)[C@@](C(=O)OC)(c3cc4c(cc3OC)N(C)[C@H]3[C@@](O)(C(N)=O)[C@H](O)[C@]5(CC)C=CCN6CC[C@]43[C@@H]65)C2)C1`: the “#Cases >70% cell death” value was determined as 9. In the case of `COc1cc2c(cc1O)CC[C@@H]1[C@@H]2CC[C@]2(C)[C@@H](O)CC[C@@H]12` [2-METHOXYESTRADIOL], the “#Cases >70% cell death” value is 2. As to `Nc1ccncc1` [4-AMINOPYRIDINE], the “#Cases >70% cell death” value came to 1. Take `Nc1nc2nn[nH]c2c(=O)[nH]1` [8-AZAGUANINE]: the “#Cases >70% cell death” value is listed as 1. Still for that read-out and setting: under `CC(=O)O[C@@]12CO[C@@H]1C[C@H](O)[C@@]1(C)C(=O)[C@H](O)C3=C(C)[C@@H](O)C[C@@](O)([C@@H](OC(=O)c4ccccc4)[C@H]21)C3(C)C` [10-DAB] stands 1. On to `CC[C@@]1(O)C(=O)OCc2c1cc1n(c2=O)Cc2cc3cc(O)ccc3nc2-1` [10-HYDROXYCAMPTOTHECIN], for which the “#Cases >70% cell death” value is on record as 12. For the molecule `CC(C)(C)[C@]1(O)CCN2C[C@H]3c4ccccc4CCc4cccc(c43)[C@@H]2C1.Cl` [(−)-BUTACLAMOL HCL], the “#Cases >70% cell death” value was found to be 3. For `CN(C)C(=O)n1cc(C(=O)c2ccn3c2CS[C@@H]3c2cccnc2)c2ccc(-c3ccc(F)cc3)cc21` [A-85783], the “#Cases >70% cell death” value was determined as 9. In the case of `Nc1nc(NC2CC2)c2ncn([C@H]3C=C[C@@H](CO)C3)c2n1` [ABACAVIR SULFATE], the “#Cases >70% cell death” value is recorded as 1. On the same count and under the same terms, under `C[C@@H]1CCCN1CCc1cc2cc(-c3ccc(C#N)cc3)ccc2o1` [ABT-239] stands 1; under `COc1ccc(S(=O)(=O)Nc2cccnc2Nc2ccc(O)cc2)cc1` [ABT-751], 5. Still for that read-out and setting: under `CC(=O)CC(c1ccc([N+](=O)[O-])cc1)c1c(O)c2ccccc2oc1=O` (centres unmarked) [ACENOCOUMAROL] stands 4; under `CC(=O)c1ccc2c(c1)N(CCCN(C)C)c1ccccc1S2` [ACEPROMAZINE MALEATE], 2. Turning to `Cc1cnc(C(=O)O)c[n+]1[O-]` [ACIPIMOX], the “#Cases >70% cell death” value was 1. `C[n+]1c2cc(N)ccc2cc2ccc(N)cc21.[Cl-]` [ACRIFLAVINIUM HYDROCHLORIDE]: the “#Cases >70% cell death” value turned out to be 5. `CCCCCCc1ccc(O)cc1O.Nc1c2ccccc2nc2ccccc12` [ACRISORCIN]: the “#Cases >70% cell death” value worked out at 18. As to `O=C(O)/C=C/c1ccc(-c2ccc(O)c(C34CC5CC(CC(C5)C3)C4)c2)cc1` [ADAROTENE], the “#Cases >70% cell death” value is 11. In the case of `Nc1ncnc2c1ncn2CCOCP(=O)(O)O` [ADEFOVIR], the “#Cases >70% cell death” value was 18.

For `CCN1CCN(Cc2ccc(-c3cc4c(N[C@H](C)c5ccccc5)ncnc4[nH]3)cc2)CC1` [AEE-788], the “#Cases >70% cell death” value is reported as 13.

As to `CCCSc1ccc2nc(NC(=O)OC)[nH]c2c1` [ALBENDAZOLE], the “#Cases >70% cell death” value was 9. Same read-out and setting: under `CC(C)(C)NCC(O)c1ccc(O)c(CO)c1` (centres unmarked) [ALBUTEROL] stands 1; under `CCCCC(CC)CNC(=N)NC(=N)NCCCCCCNC(=N)NC(=N)NCC(CC)CCCC` (centres unmarked) [ALEXIDINE], 18; under `CCN(CCCc1ccccc1)CCCc1ccccc1` [ALVERINE CITRATE], 4.

The values are drawn from patent US20210405025A1, “IDENTIFYING COMPOUNDS FOR TREATING CANCER AND USE THEREOF” (THE UAB RESEARCH FOUNDATION, priority 2018, published 2021).
